The structures appear in SMILES notation.

For assay [1], the target named is BRD4(2) (Homo sapiens, UniProt O60885). Description: HTRF bromodomain binding assay, BRD4.
Assay [2] concerns the target BRD4(1) (Homo sapiens, UniProt O60885). Description: HTRF bromodomain binding assay, BRD4.

Consider `OCCNc1nc(-c2ccc(Cl)cc2)c2ccccc2n1` [Compound 6], for which, in assay [1], the IC50 came to 8.314 ± 0.016 µM.

In assay [1], `CC(C)(CO)Nc1nc(-c2ccc(Cl)cc2)c2ccccc2n1` [Compound 7] had an IC50 of 12.4 ± 1.09 µM.

Compound `NC(=O)CNc1nc(-c2ccc(Cl)cc2)c2ccccc2n1` [Compound 8] gave a 50% inhibitory concentration (IC50) in assay [1] of 4.55 ± 0.658 µM. Moreover, the “fold more potent than compound 5 (BRD4(2) IC50)” value in assay [1] (vs compound 5) is listed as “about 4 fold”.

`Clc1ccc(-c2nc(NCCc3c[nH]c4ccccc34)nc3ccccc23)cc1` [Compound 9] returned a half-maximal inhibitory concentration (IC50) in assay [1] of 14.8 ± 1.17 µM.

Compound `Clc1ccc(-c2nc(NCc3ccco3)nc3ccccc23)cc1` [Compound 10] had a half-inhibitory concentration (IC50) in assay [1] of 13.3 ± 1.12 µM.

For `COC(=O)c1ccc(CNc2nc(-c3ccc(Cl)cc3)c3ccccc3n2)cc1` [Compound 11], in assay [1], the concentration for half-maximal inhibition (IC50) worked out at 9.04 ± 0.956 µM.

With `COC(=O)c1ccc(Nc2nc(-c3ccc(Cl)cc3)c3ccccc3n2)cc1` [Compound 12], the IC50 in assay [1] stood at 7.05 ± 0.848 µM.

In turn, `O=C(O)c1ccc(Nc2nc(-c3ccc(Cl)cc3)c3ccccc3n2)cc1` [Compound 13] displayed a half-maximal inhibitory concentration (IC50) in assay [1] of 3.05 ± 0.484 µM.

In assay [1], `Oc1ccc(Nc2nc(-c3ccc(Cl)cc3)c3ccccc3n2)cc1` [Compound 14] registered an IC50 of 4.31 ± 0.18 µM.

For the compound `Clc1ccc(-c2nc(Nc3ccccc3)nc3ccccc23)cc1` [Compound 15], in assay [1], the IC50 worked out at 10.6 ± 0.367 µM.

Compound `Cc1ccc(Nc2nc(-c3ccc(Cl)cc3)c3ccccc3n2)cc1` [Compound 16] came in with a concentration for half-maximal inhibition (IC50) in assay [1] of 8.62 ± 0.164 µM.

`CC(C)c1ccc(Nc2nc(-c3ccc(Cl)cc3)c3ccccc3n2)cc1` [Compound 17] came in with an IC50 in assay [1] of 12.9 ± 0.947 µM.

`Clc1ccc(-c2nc(Nc3ccc(Br)cc3)nc3ccccc23)cc1` [Compound 18] returned an IC50 in assay [1] of 7.02 ± 0.517 µM.

Consider `NS(=O)(=O)c1ccc(Nc2nc(-c3ccc(Cl)cc3)c3ccccc3n2)cc1` [Compound 19], for which the half-inhibitory concentration (IC50) in assay [1] came out at 1.53 ± 0.185 µM; in assay [2] it was 3370 ± 528 nM. In addition, the “fold more active in comparison to compound 15 (BRD4(2) IC50)” value in assay [1] (vs compound 15) is listed as “about 7 fold”.

The compound `O=S(=O)(c1ccc(Nc2nc(-c3ccc(Cl)cc3)c3ccccc3n2)cc1)N1CCOCC1` [Compound 20] yielded a 50% inhibitory concentration (IC50) in assay [1] of 3.88 ± 0.589 µM.

Regarding `NS(=O)(=O)c1cccc(Nc2nc(-c3ccc(Cl)cc3)c3ccccc3n2)c1` [Compound 21], in assay [1], the IC50 was more than 20 µM.

For the compound `NS(=O)(=O)c1ccc(Nc2nc(-c3ccccc3Cl)c3ccccc3n2)cc1` [Compound 23], the IC50 in assay [1] was 19.7 ± 1.3 µM.

As for `NS(=O)(=O)c1ccc(Nc2nc(-c3cccc(Cl)c3)c3ccccc3n2)cc1` [Compound 24], in assay [1], the IC50 was found to be 15.1 ± 1.18 µM.

In assay [1], `Cc1ccc2nc(Nc3ccc(S(N)(=O)=O)cc3)nc(-c3ccc(Cl)cc3)c2c1` [Compound 25] had an IC50 of 12.6 ± 0.307 µM.

`NS(=O)(=O)c1ccc(Nc2nc(-c3ccc(Br)cc3)c3ccccc3n2)cc1` [Compound 26]: the IC50 turned out to be 1.63 ± 0.212 µM in assay [1] and 1600 ± 205 nM in assay [2].

As to `NS(=O)(=O)c1ccccc1Nc1nc(-c2ccc(Br)cc2)c2ccccc2n1` [Compound 27], in assay [1], the IC50 was found to be 3.21 ± 0.206 µM.

As to `NS(=O)(=O)c1ccccc1Nc1nc(-c2ccc(F)cc2)c2ccccc2n1` [Compound 29], the half-maximal inhibitory concentration (IC50) in assay [1] stood at 0.589 ± 0.052 µM; in assay [2], 615 ± 127 nM.

`N#Cc1ccc(-c2nc(Nc3ccc(S(N)(=O)=O)cc3)nc3ccccc23)cc1` [Compound 30]: the IC50 in assay [1] stood at 0.688 ± 0.016 µM; in assay [2], 588 ± 24 nM.

For the compound `NS(=O)(=O)c1ccc(Nc2nc(-c3ccc(C(F)(F)F)cc3)c3ccccc3n2)cc1` [Compound 31], the results for the 50% inhibitory concentration (IC50) in assay [1] and in assay [2] were 0.424 ± 0.038 µM and 687 ± 54 nM, respectively.

On to `NS(=O)(=O)c1ccc(Nc2nc(-c3ccccc3)c3ccccc3n2)cc1` [Compound 32, 4-((4-Phenylquinazolin-2-yl)amino)benzenesulfonamide], for which the concentration for half-maximal inhibition (IC50) in assay [1] worked out at 10.3 ± 1.01 µM.

In assay [1], `Cc1ccc(-c2nc(Nc3ccc(S(N)(=O)=O)cc3)nc3ccccc23)cc1` [Compound 33, 4-((4-(p-Tolyl)quinazolin-2-yl)amino)benzenesulfonamide] came in with an IC50 of 3.23 ± 0.089 µM.

For `Cc1ccc(-c2nc(Nc3ccc(S(N)(=O)=O)cc3)nc3ccc(C)cc23)cc1` [Compound 34, 4-((6-Methyl-4-(p-tolyl)quinazolin-2-yl)amino)benzenesulfonamide], the IC50 in assay [1] is 13.6 ± 1.13 µM.

`COc1ccc(-c2nc(Nc3ccc(S(N)(=O)=O)cc3)nc3ccccc23)cc1` [Compound 35, 4-((4-(4-Methoxyphenyl)quinazolin-2-yl)amino)benzenesulfonamide] gave an IC50 in assay [1] of 8.12 ± 0.084 µM.

Consider `COc1ccc(-c2nc(Nc3ccccc3S(N)(=O)=O)nc3ccccc23)cc1` [Compound 36], for which the IC50 in assay [1] was determined as 9.91 ± 0.996 µM.

In turn, `CNC(=O)c1ccc(-c2nc(Nc3ccc(S(N)(=O)=O)cc3)nc3ccccc23)cc1` [Compound 37] gave a half-maximal inhibitory concentration (IC50) in assay [1] of 3.65 ± 0.562 µM.

In turn, `COC(=O)c1ccc(-c2nc(Nc3ccc(S(N)(=O)=O)cc3)nc3ccccc23)cc1` [Compound 38] registered an IC50 in assay [1] of 5.17 ± 0.614 µM.

Consider `COC(=O)c1ccc(-c2nc(Nc3ccccc3S(N)(=O)=O)nc3ccccc23)cc1` [Compound 39], for which, in assay [1], the IC50 is 3.33 ± 0.522 µM.

Compound `COC(=O)c1cccc(-c2nc(Nc3ccc(S(N)(=O)=O)cc3)nc3ccccc23)c1` [Compound 40] yielded a half-maximal inhibitory concentration (IC50) in assay [1] of 7.62 ± 0.882 µM.

In the case of `NS(=O)(=O)c1ccc(Nc2nc(-c3cccc4ccccc34)c3ccccc3n2)cc1` [Compound 41, 4-((4-(Naphthalen-1-yl)quinazolin-2-yl)amino)benzenesulfonamide], in assay [1], the IC50 came out at 4.76 ± 0.678 µM.

In turn, `NS(=O)(=O)c1ccc(Nc2nc(-c3ccc(OCc4ccccc4)cc3)c3ccccc3n2)cc1` [Compound 42, 4-((4-(4-(Benzyloxy)phenyl)quinazolin-2-yl)amino)benzenesulfonamide] had a half-inhibitory concentration (IC50) in assay [1] of more than 20 µM.

As for `O=C(O)c1ccc(Nc2nc(-c3ccc(F)cc3)c3ccccc3n2)cc1` [Compound 43, 4-((4-(4-Fluorophenyl)quinazolin-2-yl)amino)benzoic acid], the IC50 was 0.925 ± 0.081 µM in assay [1] and 4470 ± 361 nM in assay [2].

Turning to `O=C(O)c1ccc(CNc2nc(-c3ccc(F)cc3)c3ccccc3n2)cc1` [Compound 44, 4-(((4-(4-Fluorophenyl)quinazolin-2-yl)amino)methyl)benzoic acid], the IC50 came out at 2.07 ± 0.625 µM in assay [1] and 5130 ± 626 nM in assay [2].

In turn, `CC(C)c1ccc(Nc2nc(-c3ccc(F)cc3)c3ccccc3n2)cc1` [Compound 45] had an IC50 in assay [1] of 5.27 ± 0.367 µM.

Consider `NS(=O)(=O)c1ccc(CNc2nc(-c3ccc(F)cc3)c3ccccc3n2)cc1` [Compound 46], for which, in assay [1], the IC50 amounted to 6.12 ± 0.258 µM.

In assay [1], `NS(=O)(=O)c1ccc(CCNc2nc(-c3ccc(F)cc3)c3ccccc3n2)cc1` [Compound 47] came in with a half-inhibitory concentration (IC50) of 18.63 ± 0.047 µM.

`O=S(=O)(c1ccccc1Nc1nc(-c2ccc(F)cc2)c2ccccc2n1)N1CCOCC1` [Compound 48] had a half-inhibitory concentration (IC50) in assay [1] of 6.69 ± 0.825 µM.

For the compound `O=S(=O)(c1ccc(Nc2nc(-c3ccc(F)cc3)c3ccccc3n2)cc1)N1CCOCC1` [Compound 49], the IC50 turned out to be 1.33 ± 0.628 µM in assay [1] and 5950 ± 248 nM in assay [2].

Take `O=C(c1ccc(Nc2nc(-c3ccc(F)cc3)c3ccccc3n2)cc1)N1CCOCC1` [Compound 50]: in assay [1], the half-maximal inhibitory concentration (IC50) was 3.07 ± 0.584 µM.

For `NS(=O)(=O)c1ccc(Nc2nc(Nc3ccc(Br)cc3)c3ccccc3n2)cc1` [Compound 52], the IC50 in assay [1] worked out at 9.85 ± 0.993 µM. Besides, in assay [1] (vs compound 26), the “fold decrease on potency vs compound 26 (BRD4(2) IC50)” value was approximately 6 fold.

One may read the IC50 as the midpoint of a concentration-inhibition curve. A high value points to a need for much substance.

For the origin of these results see paper PMC8799877 (Acta Pharmaceutica Sinica. B, 2021).
